Measured values reported in US10093654B2, “Therapeutically active compounds and their methods of use” (Agios Pharmaceuticals, Inc., priority 2013, dated 2018).
pIC50: −log10 of the molar value.

Columns and labels:
[1] = target: T1, UGT1A1 (Homo sapiens, UniProt P22309); test: UGT1A1 inhibition by genotype; assay type: in vitro ADME
T1 sequence (P22309 26-533): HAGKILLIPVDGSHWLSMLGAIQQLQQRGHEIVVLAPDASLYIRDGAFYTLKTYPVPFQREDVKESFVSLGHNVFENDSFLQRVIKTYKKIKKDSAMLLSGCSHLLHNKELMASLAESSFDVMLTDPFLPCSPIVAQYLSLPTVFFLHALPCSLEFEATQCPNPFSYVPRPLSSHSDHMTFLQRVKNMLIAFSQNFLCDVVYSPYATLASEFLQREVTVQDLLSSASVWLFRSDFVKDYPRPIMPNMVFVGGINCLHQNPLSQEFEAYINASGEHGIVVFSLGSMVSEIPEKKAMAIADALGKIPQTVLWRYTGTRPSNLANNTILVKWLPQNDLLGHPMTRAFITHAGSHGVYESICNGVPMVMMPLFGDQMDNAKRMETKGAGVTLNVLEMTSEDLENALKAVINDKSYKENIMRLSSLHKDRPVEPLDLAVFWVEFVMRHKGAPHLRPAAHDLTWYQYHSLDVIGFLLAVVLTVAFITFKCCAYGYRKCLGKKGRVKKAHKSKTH
Procedure: Its inhibition of the UGT1A1 *1/*28 and *28/*28 Gilbert's syndrome genotypes are evaluated.

[2] = test system: TF-1 IDH2 (R140Q) cells; test: GM-CSF-independent growth in TF-1 IDH2 (R140Q) cells; assay type: cell-based; details: 1 μM for 7 days
[3] = target: CYP2C19 (Homo sapiens, UniProt P33261); test: Direct inhibition of CYP2C19; assay type: in vitro ADME
CYP2C19, sequence (P33261 whole entry): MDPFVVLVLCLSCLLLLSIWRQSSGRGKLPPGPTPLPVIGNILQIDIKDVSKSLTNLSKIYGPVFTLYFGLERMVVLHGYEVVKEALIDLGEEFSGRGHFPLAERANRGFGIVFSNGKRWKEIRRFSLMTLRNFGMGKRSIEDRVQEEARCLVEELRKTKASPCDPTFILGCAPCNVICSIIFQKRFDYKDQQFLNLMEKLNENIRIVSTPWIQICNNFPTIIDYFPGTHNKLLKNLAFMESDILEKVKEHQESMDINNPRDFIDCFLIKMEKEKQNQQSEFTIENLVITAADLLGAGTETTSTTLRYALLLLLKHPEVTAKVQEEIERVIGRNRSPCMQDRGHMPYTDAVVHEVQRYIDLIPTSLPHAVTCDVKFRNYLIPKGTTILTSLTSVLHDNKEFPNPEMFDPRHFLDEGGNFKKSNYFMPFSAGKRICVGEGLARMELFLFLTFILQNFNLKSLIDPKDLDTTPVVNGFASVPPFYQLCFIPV

[4] = test system: CYP1A2; test: CYP1A2 induction; assay type: in vitro ADME, human
[5] = target: breast cancer resistance protein (BCRP) (Homo sapiens, UniProt Q9UNQ0); test: BCRP inhibition; assay type: in vitro ADME
breast cancer resistance protein (BCRP), sequence (Q9UNQ0 whole entry): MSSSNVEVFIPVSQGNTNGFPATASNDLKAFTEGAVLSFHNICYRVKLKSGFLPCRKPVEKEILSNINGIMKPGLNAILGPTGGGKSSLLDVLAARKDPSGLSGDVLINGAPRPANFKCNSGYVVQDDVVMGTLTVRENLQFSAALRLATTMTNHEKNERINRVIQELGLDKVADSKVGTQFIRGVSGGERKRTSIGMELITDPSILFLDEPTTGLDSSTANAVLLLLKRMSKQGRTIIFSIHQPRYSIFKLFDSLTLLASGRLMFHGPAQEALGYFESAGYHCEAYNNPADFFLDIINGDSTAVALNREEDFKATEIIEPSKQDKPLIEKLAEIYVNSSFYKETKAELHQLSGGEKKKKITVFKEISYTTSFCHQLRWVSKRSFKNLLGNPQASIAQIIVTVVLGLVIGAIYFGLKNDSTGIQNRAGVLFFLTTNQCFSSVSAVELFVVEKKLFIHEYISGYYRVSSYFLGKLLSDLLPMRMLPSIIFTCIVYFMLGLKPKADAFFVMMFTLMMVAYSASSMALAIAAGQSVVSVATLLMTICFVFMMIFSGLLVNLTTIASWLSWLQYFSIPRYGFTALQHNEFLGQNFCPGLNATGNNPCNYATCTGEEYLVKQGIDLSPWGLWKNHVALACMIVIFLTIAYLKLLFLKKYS

[6] = test system: cytochrome P450s and uridine diphosphate (UDP)-glucuronosyltransferase (UGTs); test: Human enzyme phenotyping; assay type: in vitro ADME; details: all metabolite peaks at or below the limits of quantitation
[7] = Phase 1 clinical study, plasma pharmacokinetics; assay type: in vivo, human
From the text: The PK/PD profile from Day −3 through Day 1 is optional for additional subjects enrolled in the dose escalation phase (i.e., for any subjects beyond the 3 initial subjects enrolled in a cohort) and is not required for subjects enrolled in the expansion cohorts.

[8] = target: CYP2C9 (Homo sapiens, UniProt P11712); test: Direct inhibition of CYP2C9; assay type: in vitro ADME
CYP2C9, sequence (P11712 whole entry): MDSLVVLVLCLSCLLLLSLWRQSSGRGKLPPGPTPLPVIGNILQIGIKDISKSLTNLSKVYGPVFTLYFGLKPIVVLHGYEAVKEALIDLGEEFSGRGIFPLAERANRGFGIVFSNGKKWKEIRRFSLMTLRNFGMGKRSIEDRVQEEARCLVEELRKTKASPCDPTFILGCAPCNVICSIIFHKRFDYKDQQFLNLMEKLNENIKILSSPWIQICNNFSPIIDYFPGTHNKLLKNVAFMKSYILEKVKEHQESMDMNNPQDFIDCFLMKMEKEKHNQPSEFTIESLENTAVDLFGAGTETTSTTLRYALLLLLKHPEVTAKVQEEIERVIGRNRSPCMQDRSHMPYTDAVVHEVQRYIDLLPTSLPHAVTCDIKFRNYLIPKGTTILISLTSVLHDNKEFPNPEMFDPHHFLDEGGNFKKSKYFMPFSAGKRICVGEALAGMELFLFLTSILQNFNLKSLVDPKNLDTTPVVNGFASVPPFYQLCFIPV

[9] = test system: CYP enzymes; test: Time-dependent or metabolism-dependent inhibition of CYP enzymes; assay type: in vitro ADME, human
[10] = test system: TF-1 IDH2 (R140Q) mutant cells; test: Differentiation block, EPO-induced expression in TF-1 IDH2 (R140Q) mutant cells; assay type: cell-based; details: when 2-HG levels fall below 1 mM
[11] = target: CYP 2D6 (Homo sapiens, UniProt P10635); test: Direct inhibition of CYP 2D6; assay type: in vitro ADME
CYP 2D6, sequence (P10635 whole entry): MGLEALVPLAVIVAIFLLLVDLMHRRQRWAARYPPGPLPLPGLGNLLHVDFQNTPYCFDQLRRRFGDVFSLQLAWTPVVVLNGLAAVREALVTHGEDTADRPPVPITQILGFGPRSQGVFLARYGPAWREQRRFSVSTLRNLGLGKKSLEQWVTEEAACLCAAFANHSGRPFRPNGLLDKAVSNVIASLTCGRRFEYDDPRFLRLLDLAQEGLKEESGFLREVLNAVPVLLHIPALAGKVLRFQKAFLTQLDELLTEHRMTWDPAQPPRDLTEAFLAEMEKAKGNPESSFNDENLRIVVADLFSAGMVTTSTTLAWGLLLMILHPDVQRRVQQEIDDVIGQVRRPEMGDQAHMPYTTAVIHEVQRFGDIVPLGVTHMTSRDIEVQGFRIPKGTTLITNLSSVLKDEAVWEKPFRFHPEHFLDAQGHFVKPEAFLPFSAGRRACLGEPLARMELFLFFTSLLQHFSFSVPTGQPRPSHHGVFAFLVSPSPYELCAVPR

[12] = test system: advanced hematologic malignancies that harbor an IDH2 mutation; test: Phase 1 clinical study, clinical activity (response to treatment); assay type: in vivo, human
Procedure: Subjects will have the extent of their disease assessed, including bone marrow biopsies and/or aspirates and peripheral blood, at screening, on Day 15, Day 29 and Day 57, and every 56 days thereafter while on study drug treatment, independent of dose delays and/or dose interruptions, and/or at any time when progression of disease is suspected. Response to treatment is determined by the Investigators based on modified International Working Group (IWG) response criteria for acute myelogenous leukemia (AML).
Serial blood and bone marrow sampling is evaluated during the clinical study to determine response to treatment based on modified IWG response criteria in AML.
Disease response to treatment is assessed through the evaluation of bone marrow aspirates and biopsies, along with complete blood counts and examination of peripheral blood films. Subjects have the extent of their disease assessed and recorded at screening, on Days 15, 29, and 57, every 56 days thereafter while on study drug treatment, independent of dose-delays and/or dose interruptions, and/or at any time when progression of disease is suspected. An assessment also is conducted at the End of Treatment visit for subjects who discontinue the study due to reasons other than disease progression.
Bone marrow aspirates and biopsies are to be obtained at screening, Day 15, Day 29, Day 57, every 56 days thereafter independent of dose delays and/or interruptions, at any time when progression of disease is suspected, and at the End of Treatment visit. Bone marrow aspirates and core sampling should be performed according to standard of care and analyzed at the local site's laboratory in accordance with the International Council for Standardization in Hematology (ICSH) Guidelines (Lee S H, et al. Int J Lab Hematol. 2008; 30(5):349-64). Bone marrow core biopsies and aspirate are to be evaluated for morphology, flow cytometry, and for karyotype to assess potential clinical activity. Aliquots of the bone marrow and/or peripheral blood blast cells also are evaluated at central laboratories for 2-HG levels, gene expression profiles, histone and DNA methylation patterns, and metabolomic profiling. Peripheral blood for the evaluation of leukemic blast cells is to be obtained at screening, Day 15, Day 29, Day 57, every 56 days thereafter independent of dose delays and/or interruptions, at any time when progression of disease is suspected, and at the End of Treatment visit. Cell counts and flow cytometry are used to assess the state of differentiation of blast cells collected from bone marrow and peripheral blood. Side scatter also is analyzed to determine the complexity of the blast cells in response to compound 1.
The following criteria outlined in Table 5 and Table 6 are used to assess response to treatment.

2-Methyl-1-[(4-[6-(trifluoromethyl)pyridin-2-yl]-6-{[2-(trifluoromethyl)pyridin-4-yl]amino}-1,3,5-triazin-2-yl)amino]propan-2-ol methanesulfonate [compound 1]
pIC50 ([1]; *1/*1 genotype): 5.72
pIC50 ([1]; *1/*28 genotype): 5.46
pIC50 ([1]; *28/*28 genotype): 5.00
GM-CSF independent growth [2]: reversed
pIC50 [3]: 5.20
induction of CYP1A2 [4]: not observed
BCRP inhibition ([5]; 5 μM): 100%
BCRP inhibition ([5]; 100 μM): 100%
contribution of CYPs 1A2, 2C8, 2C9, 3A4 and UGTs 1A1, 1A3, 2B7, 2B15 to metabolism [6]: at low levels
mean plasma exposure AUC0-10 hr ([7]; cohort 1 of Table 4 (30 mg twice daily), C1D15, 3 patients): 37700 ng·h/mL
mean plasma exposure AUC0-10 hr ([7]; cohort 1 of Table 4 (30 mg twice daily), C2D1, 1 patient): 22600 ng·h/mL
mean plasma exposure AUC0-10 hr ([7]; cohort 1 of Table 4 (30 mg), Day −3 single dose, 4 patients): 4700 ng·h/mL
mean plasma exposure AUC0-10 hr ([7]; cohort 1 of Table 7 (30 mg twice daily), C2D1, 2 patients): 47200 ng·h/mL
mean plasma exposure AUC0-10 hr ([7]; cohort 1 of Table 7 (30 mg twice daily), CID15, 4 patients): 41000 ng·h/mL
mean plasma exposure AUC0-10 hr ([7]; cohort 1 of Table 7 (30 mg), Day −3 single dose, 5 patients): 4500 ng·h/mL
mean plasma exposure AUC0-10 hr ([7]; cohort 2 of Table 4 (50 mg twice daily), C1D15, 3 patients): 58100 ng·h/mL
mean plasma exposure AUC0-10 hr ([7]; cohort 2 of Table 4 (50 mg twice daily), C2D1, 4 patients): 93800 ng·h/mL
mean plasma exposure AUC0-10 hr ([7]; cohort 2 of Table 4 (50 mg), Day −3 single dose, 4 patients): 5400 ng·h/mL
mean plasma exposure AUC0-10 hr ([7]; cohort 2 of Table 7 (50 mg twice daily), C1D15, 3 patients): 64100 ng·h/mL
mean plasma exposure AUC0-10 hr ([7]; cohort 2 of Table 7 (50 mg twice daily), C2D1, 4 patients): 97000 ng·h/mL
mean plasma exposure AUC0-10 hr ([7]; cohort 2 of Table 7 (50 mg), Day −3 single dose, 4 patients): 5400 ng·h/mL
mean plasma exposure AUC0-10 hr ([7]; cohort 3 of Table 7 (75 mg twice daily), C1D15, 3 patients): 120000 ng·h/mL
mean plasma exposure AUC0-10 hr ([7]; cohort 3 of Table 7 (75 mg twice daily), C2D1, 3 patients): 146000 ng·h/mL
mean plasma exposure AUC0-10 hr ([7]; cohort 3 of Table 7 (75 mg), Day −3 single dose, 4 patients): 9000 ng·h/mL
mean plasma exposure AUC0-10 hr ([7]; cohort 4 of Table 7 (100 mg once daily), C1D15, 3 patients): 72600 ng·h/mL
mean plasma exposure AUC0-10 hr ([7]; cohort 4 of Table 7 (100 mg once daily), C2D1, 2 patients): 87100 ng·h/mL
mean plasma exposure AUC0-10 hr ([7]; cohort 4 of Table 7 (100 mg), Day −3 single dose, 4 patients): 8200 ng·h/mL
pIC50 [8]: 5.43
time-dependent or metabolism-dependent inhibition of CYP enzymes [9]: Neither compound shows time-dependent or metabolism-dependent inhibition
EPO-induced expression of hemoglobin gamma ½ and Kruppel-like factor 1 (KLF-1) [10]: restores
pIC50 [11]: 4.68
Response (Cycle) ([12]; Table 4, Cohort 1, 30 mg orally twice daily, per AML patient): CRp
Response (Cycle) ([12]; Table 4, Cohort 2, 50 mg orally twice daily, per AML patient): CRp
Response (Cycle) ([12]; Table 7, Cohort 1, 30 mg orally twice daily, per patient): CRp
Response (Cycle) ([12]; Table 7, Cohort 2, 50 mg orally twice daily, per patient): Cri
Response (Cycle) ([12]; Table 7, Cohort 5, 100 mg orally twice daily, per patient): CRp
neutrophil counts ([12]; by cycle 1 day 15): increase
white blood cell counts and neutrophil counts ([12]; by cycle 2 day 15 in patients with a response): in normal range
patients with progressive disease ([12]; of a total 35 patients): 6
patients with stable disease ([12]; of a total 35 patients): 5
